The structures appear in SMILES notation. ± gives the expanded uncertainty stated by the source.

This note sets out measurements from the NIST ThermoML archive (doi:10.1021/je3002514).

The conditions of this series: Crystal; visual observation.

For the compound `CCCC[N+](C)(CCCC)CCCC.COS(=O)(=O)[O-]` [N,N-dibutyl-N-methyl-1-butanaminium methyl sulfate], the Normal melting temperature is 62.0 ± 2 °C.
For `CCCC[P+](C)(CCCC)CCCC.COS(=O)(=O)[O-]` [tributylmethylphosphonium methyl sulfate] the value was 38.0 ± 2 °C.
